Data taken from US20230081426A1, “COMPOUNDS AND METHODS FOR KRAS MODULATION AND INDICATIONS THEREFOR” (Plexxikon Inc., priority 2020, published 2023).

Key:
[1] = molecular target: T1, G12V-mutant human KRAS (amino acid residues 1-188) (Homo sapiens, UniProt P01116, G12V); experiment: KRAS Binding Competition Assay (AlphaScreen; biotinylated KRpep-2d analogue), G12V; details: geometric mean, read-out: KRAS GMean IC50 (uM) MUTATION: G12V
T1 construct: G12V-mutant human KRAS (amino acid residues 1-188) with FLAG tag was purified from E. coli; made in house; host or cells: E. coli

[2] = molecular target: T2, G12D-mutant human KRAS (amino acid residues 1-188) (Homo sapiens, UniProt P01116, G12D); experiment: KRAS Binding Disruption Assay (AlphaScreen; biotinylated KRpep-2d analogue or RAF1-RBD), G12D; details: KRAS G12D; geometric mean; read-out: KRAS GMean IC50 (uM) MUTATION: G12D
T2 construct: G12D or G12C-mutant human KRAS (amino acid residues 1-188) with FLAG tag; made in house; host or cells: E. coli
Outline: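 AlphaScreen readout: signal falls as compound displaces biotinylated KRpep-2d analogue or RAF1-RBD from mutant KRAS. Both partners at 5-20 nM, 1 h binding at 25° C, then 10 μg/mL Anti-Flag acceptor and streptavidin donor beads for 1 h. IC50 by nonlinear regression of % inhibition.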

Compound	IC50 [1] [µM]	IC50 [2] [µM]
CN1CCC(CC(=O)N2[C@@H]3CC[C@H]2CN(c2nc(OCC45CCCN4CCC5)nc4c(F)c(-c5cc(O)cc6ccccc56)ccc24)C3)CC1 [P-0149, 1-((1R,5S)-3-(8-fluoro-7-(3-hydroxynaphthalen-1-yl)-2-((tetrahydro-1H-pyrrolizin-7a(5H)-yl)methoxy)quinazolin-4-yl)-3,8-diazabicyclo[3.2.1]octan-8-yl)-2-(1-methylpiperidin-4-yl)ethan-1-one]	0.0001 to 10	0.0001 to 10
O=C(CCCN1CCCCC1)N1[C@@H]2CC[C@H]1CN(c1nc(OCC34CCCN3CCC4)nc3c(F)c(-c4cc(O)cc5ccccc45)ccc13)C2 [P-0150, 1-((1R,5S)-3-(8-fluoro-7-(3-hydroxynaphthalen-1-yl)-2-((tetrahydro-1H-pyrrolizin-7a(5H)-yl)methoxy)quinazolin-4-yl)-3,8-diazabicyclo[3.2.1]octan-8-yl)-4-(piperidin-1-yl)butan-1-one]	0.0001 to 10	0.0001 to 10
Cc1cc2cn[nH]c2cc1-c1ccc2c(N3C[C@H]4CC[C@@H](C3)N4)nc(OCC3CCCN3C)nc2c1 (stereo partly drawn) [P-0155, 4-((1R,5S)-3,8-diazabicyclo[3.2.1]octan-3-yl)-7-(5-methyl-1H-indazol-6-yl)-2-((1-methylpyrrolidin-2-yl)methoxy)quinazoline]	10 to 100	100 to 1000
CC(=O)Nc1cccc(-c2ccc3c(N4C[C@H]5CC[C@@H](C4)N5)nc(OCC4CCCN4C)nc3c2)c1 (stereo partly drawn) [P-0156, N-(3-(4-((1R,5S)-3,8-diazabicyclo[3.2.1]octan-3-yl)-2-((1-methylpyrrolidin-2-yl)methoxy)quinazolin-7-yl)phenyl)acetamide]	100 to 1000	100 to 1000
CN1CCC[C@H]1COc1nc(N2C[C@H]3CC[C@@H](C2)N3)c2ccc(-c3ccc4c(c3)NC(=O)CO4)cc2n1 [P-0159, 6-(4-((1R,5S)-3,8-diazabicyclo[3.2.1]octan-3-yl)-2-(((S)-1-methylpyrrolidin-2-yl)methoxy)quinazolin-7-yl)-2H-benzo[b][1,4]oxazin-3(4H)-one]	100 to 1000	100 to 1000
Cc1nc2cc(-c3ccc4c(N5C[C@H]6CC[C@@H](C5)N6)nc(OC[C@@H]5CCCN5C)nc4c3)ccc2[nH]1 [P-0163, 4-((1R,5S)-3,8-diazabicyclo[3.2.1]octan-3-yl)-7-(2-methyl-1H-benzo[d]imidazol-5-yl)-2-(((S)-1-methylpyrrolidin-2-yl)methoxy)quinazoline]	100 to 1000	100 to 1000
CN1CCC[C@H]1COc1nc(N2C[C@H]3CC[C@@H](C2)N3)c2ccc(-c3c(O)cccc3F)cc2n1 [P-0165, 2-(4-((1R,5S)-3,8-diazabicyclo[3.2.1]octan-3-yl)-2-(((S)-1-methylpyrrolidin-2-yl)methoxy)quinazolin-7-yl)-3-fluorophenol]	10 to 100	10 to 100
CC(=O)Nc1ccc(F)c(-c2ccc3c(N4C[C@H]5CC[C@@H](C4)N5)nc(OC[C@@H]4CCCN4C)nc3c2)c1 [P-0167, N-(3-(4-((1R,5S)-3,8-diazabicyclo[3.2.1]octan-3-yl)-2-(((S)-1-methylpyrrolidin-2-yl)methoxy)quinazolin-7-yl)-4-fluorophenyl)acetamide]	100 to 1000	100 to 1000
CN1CCC[C@H]1COc1nc(N2C[C@H]3CC[C@@H](C2)N3)c2ccc(-c3ccccc3O)cc2n1 [P-0169, 2-(4-((1R,5S)-3,8-diazabicyclo[3.2.1]octan-3-yl)-2-(((S)-1-methylpyrrolidin-2-yl)methoxy)quinazolin-7-yl)phenol]	100 to 1000	100 to 1000
CN1CCC[C@H]1COc1nc(N2CC3CCC(C2)N3)c2ccc(-c3cccc(NS(C)(=O)=O)c3)cc2n1 [P-0170, N-(3-(4-((1R,5S)-3,8-diazabicyclo[3.2.1]octan-3-yl)-2-(((S)-1-methylpyrrolidin-2-yl)methoxy)quinazolin-7-yl)phenyl)meanesulfonamide]	100 to 1000	100 to 1000
CN1CCC[C@H]1COc1nc(N2C[C@H]3CC[C@@H](C2)N3)c2ccc(-c3cccc4[nH]ncc34)cc2n1 [P-0171, 4-((1R,5S)-3,8-diazabicyclo[3.2.1]octan-3-yl)-7-(1H-indazol-4-yl)-2-(((S)-1-methylpyrrolidin-2-yl)methoxy)quinazoline]	100 to 1000	100 to 1000
CN1CCC[C@H]1COc1nc(N2C[C@H]3CC[C@@H](C2)N3)c2ccc(-c3ccc4c(c3)NC(=O)C4)cc2n1 [P-0174, 6-(4-((1R,5S)-3,8-diazabicyclo[3.2.1]octan-3-yl)-2-(((S)-1-methylpyrrolidin-2-yl)methoxy)quinazolin-7-yl)indolin-2-one]	10 to 100	100 to 1000

Now from value to molecule:

IC50 [1] [µM]	IC50 [2] [µM]	Compound
100 to 1000	100 to 1000	CN1CCC[C@H]1COc1nc(N2C[C@H]3CC[C@@H](C2)N3)c2ccc(-c3ccccc3)cc2n1 [P-0151, 4-((1R,5S)-3,8-diazabicyclo[3.2.1]octan-3-yl)-2-(((S)-1-methylpyrrolidin-2-yl)methoxy)-7-phenylquinazoline]
10 to 100	10 to 100	Cc1ccc(N)cc1-c1ccc2c(N3C[C@H]4CC[C@@H](C3)N4)nc(OC[C@@H]3CCCN3C)nc2c1 [P-0152, 3-(4-((1R,5S)-3,8-diazabicyclo[3.2.1]octan-3-yl)-2-(((S)-1-methylpyrrolidin-2-yl)methoxy)quinazolin-7-yl)-4-methylaniline]
100 to 1000	10 to 100	CN1CCC[C@H]1COc1nc(N2C[C@H]3CC[C@@H](C2)N3)c2ccc(-c3cc4ccccc4s3)cc2n1 [P-0153, 7-(benzo[b]thiophen-2-yl)-4-((1R,5S)-3,8-diazabicyclo[3.2.1]octan-3-yl)-2-(((S)-1-methylpyrrolidin-2-yl)methoxy)quinazoline]
10 to 100	10 to 100	CN1CCC[C@H]1COc1nc(N2C[C@H]3CC[C@@H](C2)N3)c2ccc(-c3csc4ccccc34)cc2n1 [P-0154, 7-(benzo[b]thiophen-3-yl)-4-((1R,5S)-3,8-diazabicyclo[3.2.1]octan-3-yl)-2-(((S)-1-methylpyrrolidin-2-yl)methoxy)quinazoline]
100 to 1000	10 to 100	CN1CCC[C@H]1COc1nc(N2C[C@H]3CC[C@@H](C2)N3)c2ccc(-c3cc(N)c(Cl)cc3Cl)cc2n1 [P-0157, 5-(4-((1R,5S)-3,8-diazabicyclo[3.2.1]octan-3-yl)-2-(((S)-1-methylpyrrolidin-2-yl)methoxy)quinazolin-7-yl)-2,4-dichloroaniline]
10 to 100	10 to 100	CN1CCC[C@H]1COc1nc(N2C[C@H]3CC[C@@H](C2)N3)c2ccc(-c3cc(N)cc(F)c3F)cc2n1 [P-0158, 3-(4-((1R,5S)-3,8-diazabicyclo[3.2.1]octan-3-yl)-2-(((S)-1-methylpyrrolidin-2-yl)methoxy)quinazolin-7-yl)-4,5-difluoroaniline]
100 to 1000	100 to 1000	CC(=O)Nc1cncc(-c2ccc3c(N4C[C@H]5CC[C@@H](C4)N5)nc(OC[C@@H]4CCCN4C)nc3c2)c1 [P-0160, N-(5-(4-((1R,5S)-3,8-diazabicyclo[3.2.1]octan-3-yl)-2-(((S)-1-methylpyrrolidin-2-yl)methoxy)quinazolin-7-yl)pyridin-3-yl)acetamide]
100 to 1000	0.0001 to 10	Cc1ccc2[nH]ncc2c1-c1ccc2c(N3C[C@H]4CC[C@@H](C3)N4)nc(OC[C@@H]3CCCN3C)nc2c1 [P-0161, 4-((1R,5S)-3,8-diazabicyclo[3.2.1]octan-3-yl)-7-(5-methyl-1H-indazol-4-yl)-2-(((S)-1-methylpyrrolidin-2-yl)methoxy)quinazoline]
100 to 1000	100 to 1000	CN1CCC[C@H]1COc1nc(N2C[C@H]3CC[C@@H](C2)N3)c2ccc(-c3ccc4cn[nH]c4c3)cc2n1 [P-0162, 4-((1R,5S)-3,8-diazabicyclo[3.2.1]octan-3-yl)-7-(1H-indazol-6-yl)-2-(((S)-1-methylpyrrolidin-2-yl)methoxy)quinazoline]
100 to 1000	10 to 100	CN1CCC[C@H]1COc1nc(N2C[C@H]3CC[C@@H](C2)N3)c2ccc(-c3c(F)ccc(O)c3F)cc2n1 [P-0164, 3-(4-((1R,5S)-3,8-diazabicyclo[3.2.1]octan-3-yl)-2-(((S)-1-methylpyrrolidin-2-yl)methoxy)quinazolin-7-yl)-2,4-difluorophenol]
100 to 1000	100 to 1000	CN1CCC[C@H]1COc1nc(N2C[C@H]3CC[C@@H](C2)N3)c2ccc(-c3cc(Cl)ccc3O)cc2n1 [P-0166, 2-(4-((1R,5S)-3,8-diazabicyclo[3.2.1]octan-3-yl)-2-(((S)-1-methylpyrrolidin-2-yl)methoxy)quinazolin-7-yl)-4-chlorophenol]
10 to 100	100 to 1000	CN1CCC[C@H]1COc1nc(N2C[C@H]3CC[C@@H](C2)N3)c2ccc(-c3ccnc(N)c3)cc2n1 [P-0168, 4-(4-((1R,5S)-3,8-diazabicyclo[3.2.1]octan-3-yl)-2-(((S)-1-methylpyrrolidin-2-yl)methoxy)quinazolin-7-yl)pyridin-2-amine]
100 to 1000	10 to 100	Cc1n[nH]c2cccc(-c3ccc4c(N5C[C@H]6CC[C@@H](C5)N6)nc(OC[C@@H]5CCCN5C)nc4c3)c12 [P-0172, 4-((1R,5S)-3,8-diazabicyclo[3.2.1]octan-3-yl)-7-(3-methyl-1H-indazol-4-yl)-2-(((S)-1-methylpyrrolidin-2-yl)methoxy)quinazoline]
10 to 100	10 to 100	CN1CCC[C@H]1COc1nc(N2C[C@H]3CC[C@@H](C2)N3)c2ccc(-c3ccc4c(c3)NCCO4)cc2n1 [P-0173, 6-(4-((1R,5S)-3,8-diazabicyclo[3.2.1]octan-3-yl)-2-(((S)-1-methylpyrrolidin-2-yl)methoxy)quinazolin-7-yl)-3,4-dihydro-2H-benzo[b][1,4]oxazine]
